pIC50: −log10 of the molar value.
Biological target: T1, G1 APOL1 (Homo sapiens, UniProt O14791, I384M/S342G)
T1 construct: expressed in transfected cells
T1 sequence (O14791 28-398 S342G/I384M): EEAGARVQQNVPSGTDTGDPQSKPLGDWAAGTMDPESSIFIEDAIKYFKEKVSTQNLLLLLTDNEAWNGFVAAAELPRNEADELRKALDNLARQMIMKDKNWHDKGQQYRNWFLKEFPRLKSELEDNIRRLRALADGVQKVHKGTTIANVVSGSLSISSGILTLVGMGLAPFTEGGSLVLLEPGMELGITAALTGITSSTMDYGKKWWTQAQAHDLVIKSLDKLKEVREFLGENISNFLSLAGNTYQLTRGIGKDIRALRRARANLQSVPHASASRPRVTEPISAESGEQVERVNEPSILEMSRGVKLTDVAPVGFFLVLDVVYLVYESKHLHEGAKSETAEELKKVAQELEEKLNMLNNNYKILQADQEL
Experiment: Acute APOL1 Thallium Assay with Inducible Stable Clones of HEK 293 Cells
Assay type: cell-based
Settings: HEK 293 inducible stable clones, G1 APOL1; read-out: Thallium Assay (IC50)
From the text: Acute APOL1 Thallium Assay with Inducible Stable Clones of HEK 293 Cells
Apolipoprotein L1 (APOL1) proteins form potassium-permeable cation pores in the plasma membrane. APOL1 risk variants (G1 and G2) induce greater potassium flux than G0 in HEK293 cells. This assay exploits the permeability of thallium (Tl+) through ligand-gated potassium channels. The dye produces a bright fluorescent signal upon binding to Tl+ conducted through potassium channels. The intensity of the Tl+ signal is proportional to the number of potassium channels in the open state. Therefore, it provides a functional indication of the potassium channel activities. During the initial dye-loading step, the Tl+ indicator dye as an acetoxymethyl (AM) ester enters the cells through passive diffusion. Cytoplasm esterases cleave the AM ester and relieve its active thallium-sensitive form. The cells are then stimulated with Tl+. The increase of fluorescence in the assay represents the influx of Tl+ into the cell specifically through the potassium channel (i.e. through APOL1 pores), providing a functional measurement of potassium channel/pore activity. The Thallium assay is conducted with cells expressing G1 APOL1.
APOL1 Cell Line (HEK T-Rex Stable Inducible Cell Line) • HEK T-Rex System • Tetracycline (Tet) inducible mammalian expression system. • Stably express the Tet repressor to regulate transcription. • Expression under the full-length CMV promoter. • APOL1 stable inducible cell line Clone used: G1 DC3.25
Tissue Culture Media • Cell Culture Medium • DMEM+10% FBS+P/S+5 μg/mL blasticidin+1 μg/mL puromycin. • 500 mL DMEM+55 mL FBS+5 mL P/S+280 μL blasticidin S HCl (10 mg/mL)+56 μL puromycin (10 mg/mL). • Cell Assay Medium • DMEM with 2% FBS+penicillin/streptomycin.
Instruments and Equipment • Nuaire cell culture hood, Cat. No. 540-600 • 37° C./5% CO2 incubator link to robotic arm, Liconic: STX110 • Molecular Devices FLIPR^Tetra High throughput cellular screening system, Cat. No. FT0324, Molecular Devices • ThermoFisher MultiDrop 384, Cat. No. 5840300 • Biotek Microfill, Cat. No. ASF1000A-4145 • BioRad TC10 cell counter, Cat. No. 145-0010
Cells Scaled Up from Frozen Vials • APOL1 G1 3.25 (HEK293 T-Rex) frozen vials: 5 million cells per vial • Step 1, Day 1: Defrost frozen vial into T-225. • Step 2, Day 5: (when 85% confluent): Split one T-225 at 3×10^6 cells per flask. • Step 3, Day 8: Splits cells to set up for the assay plates as described below.
T-Rex APOL1 HEK cells are split twice per week to keep the confluence state below 85% of the culture flask surface area. Cells can be kept until passage 25. • Cell Culture Medium • DMEM high glucose+10% FBS, +P/S, +5 μg/mL blasticidin, +1 μg/mL puromycin. • 500 mL DMEM, +55 mL FBS, +5 mL P/S, +280 μL blasticidin 10 mg/mL, +56 μL Puromycin 10 mg/mL. • Assay Media • Opti-MEM reduced serum medium from Invitrogen.
Preparation of Cell Assay Plates • Culture medium is removed from the x cm^2 T-flask by aspiration. • The cell monolayer is rinsed with PBS 1× at room temperature. PBS is removed by aspiration. • Cells are trypsinized using Trypsin. • The flasks are incubated at room temperature for 2-3 minutes. • Complete DMEM medium is then added. Cell suspension is then transferred to a 50 mL Falcon polypropylene tube. • Cells are then counted using a BioRad TC10 cell counter and the required amount of cells are centrifuged at 1200 RPM for 5 minutes. Required amount is 1.3×10^6 cells/mL APOL1 T-Rex HEK cells. • The pellet is suspended in the assay medium. • Using the MultiDrop, add 20 μL to each well (corresponds to 26000 cells total per well) of a 384-well black, transparent, flat bottom Poly-D coated plate. • Tetracycline as prepared in the following section is added to the cells before plating to induce APOL1 expression. • Plates are left at room temperature for 20 to 30 minutes before incubation at 37° C. and 5% CO2. […]

pIC50	SMILES
6.00 to 6.60	O=C(NCC(O)CO)OCCc1c(-c2ccc(F)cc2)[nH]c2c(F)cc(F)cc12 (centres unmarked) [Compound 468]
> 6.60	O=C(NCC(F)F)OCCc1c(-c2ccc(F)cc2)[nH]c2c(F)cc(F)cc12 [Compound 449]
6.00 to 6.60	C[C@@H](CO)NC(=O)CCCc1c(-c2ccc(F)cc2)[nH]c2c(F)cc(F)cc12 [Compound 240]
6.00 to 6.60	C[C@H](O)CNC(=O)OCCc1c(-c2ccc(F)cc2)[nH]c2c(F)cc(F)cc12 [Compound 462]
> 6.60	O=C(CCc1c(-c2ccc(F)cc2)[nH]c2c(F)cc(F)cc12)N[C@@H](CO)C(F)F [Compound 132]
< 6.00	O=C(NCc1ncc[nH]1)OCCc1c(-c2ccc(F)cc2)[nH]c2c(F)cc(F)cc12 [Compound 484]
< 6.00	CC(C)[C@@H](CO)NC(=O)NCCc1c(-c2ccc(F)cc2)[nH]c2c(F)cc(F)cc12 [Compound 269]
< 6.00	NC(=O)[C@H](CO)NC(=O)CCc1c(-c2ccc(F)cc2)[nH]c2c(F)cc(Cl)cc12 [Compound 206]
< 6.00	CN(C)S(=O)(=O)NCCc1c(-c2ccc(F)cc2)[nH]c2c(F)cc(F)cc12 [Compound 425]
< 6.00	CCOCCc1c(-c2ccc(F)cc2)[nH]c2c(F)cc(F)cc12 [Compound 503, 3-(2-ethoxyethyl)-5,7-difluoro-2-(4-fluorophenyl)-1H-indole]
< 6.00	CC(C)(C)[C@H](CO)NC(=O)NCCc1c(-c2ccc(F)cc2)[nH]c2c(F)cc(F)cc12 [Compound 265]
6.00 to 6.60	C[C@@H](O)[C@@H](CO)NC(=O)OCCc1c(-c2ccc(F)cc2)[nH]c2c(F)cc(F)cc12 [Compound 454]
< 6.00	O=C1CC(C(=O)NCCc2c(-c3ccc(F)cc3)[nH]c3c(F)cc(F)cc23)CN1 (centres unmarked) [Compound 340]
< 6.00	NC(=O)[C@H](CO)NC(=O)OCCc1c(-c2ccc(F)cc2)[nH]c2c(F)cc(F)cc12 [Compound 475]
< 6.00	N#Cc1ccc(-c2[nH]c3c(F)cc(F)cc3c2/C=C/C(=O)N[C@H]2CCNC2=O)cc1 [Compound 522, (E)-3-[2-(4-cyanophenyl)-5,7-difluoro-1H-indol-3-yl]-N-[(3S)-2-oxopyrrolidin-3-yl]prop-2-enamide]
< 6.00	O=C(NCCc1c(-c2ccc(F)cc2)[nH]c2c(F)cc(F)cc12)c1ccccn1 [Compound 403]
< 6.00	O=C(NCC1(O)CCC1)OCCc1c(-c2ccc(F)cc2)[nH]c2c(F)cc(F)cc12 [Compound 486]
< 6.00	Cn1cnc(C(=O)NCCc2c(-c3ccc(F)cc3)[nH]c3c(F)cc(F)cc23)c1 [Compound 389]
< 6.00	CN(C)C(=O)CCC(=O)NCCc1c(-c2ccc(F)cc2)[nH]c2c(F)cc(F)cc12 [Compound 374]
< 6.00	O=C(NCCc1c(-c2ccc(F)cc2)[nH]c2c(F)cc(F)cc12)c1cccnn1 [Compound 396]
< 6.00	O=C1CC[C@@H](C(=O)NCCc2c(-c3ccc(F)cc3)[nH]c3c(F)cc(F)cc23)N1 [Compound 338]
6.00 to 6.60	Cn1nccc1C(=O)NCCc1c(-c2ccc(F)cc2)[nH]c2c(F)cc(F)cc12 [Compound 392]
< 6.00	CS(=O)(=O)CC(=O)NCCc1c(-c2ccc(F)cc2)[nH]c2c(F)cc(F)cc12 [Compound 382]
6.00 to 6.60	CCOCCNC(=O)OCCc1c(-c2ccc(F)cc2)[nH]c2c(F)cc(F)cc12 [Compound 455]

pIC50	SMILES
< 6.00	C[C@@H](CO)NC(=O)N(C)CCc1c(-c2ccc(F)cc2)[nH]c2c(F)cc(F)cc12 [Compound 303]
< 6.00	O=C1CCC[C@@H](C(=O)NCCc2c(-c3ccc(F)cc3)[nH]c3c(F)cc(F)cc23)N1 [Compound 329]
< 6.00	Cc1ccc(C(=O)NCCc2c(-c3ccc(F)cc3)[nH]c3c(F)cc(F)cc23)o1 [Compound 393]
6.00 to 6.60	CC1(CO)CCN1C(=O)CCc1c(-c2ccc(F)cc2)[nH]c2c(F)cc(F)cc12 (centres unmarked) [Compound 110]
< 6.00	O=C(NCc1cn(CC(F)(F)F)cn1)OCCc1c(-c2ccc(F)cc2)[nH]c2c(F)cc(F)cc12 [Compound 493]
> 6.60	O=C1CC(C(=O)NCCc2c(-c3ccc(F)cc3)[nH]c3c(F)cc(F)cc23)C(=O)N1 (centres unmarked) [Compound 333]
< 6.00	O=C(Cc1cnccn1)NCCc1c(-c2ccc(F)cc2)[nH]c2c(F)cc(F)cc12 [Compound 381]
< 6.00	O=C(NCCc1c(-c2ccc(F)cc2)[nH]c2c(F)cc(F)cc12)NCC1CCCO1 (centres unmarked) [Compound 297]
< 6.00	C[C@]1(O)C[C@@H](NC(=O)OCCc2c(-c3ccc(F)cc3)[nH]c3c(F)cc(F)cc23)C1 [Compound 489]
< 6.00	NC(=O)CCCc1c(-c2ccc(F)cc2)[nH]c2c(F)cc(F)cc12 [Compound 243]
> 6.60	O=C(/C=C/c1c(-c2ccc(F)cc2)[nH]c2c(F)cc(F)cc12)N[C@H]1CCNC1=O [Compound 519, (E)-3-[5,7-difluoro-2-(4-fluorophenyl)-1H-indol-3-yl]-N-[(3S)-2-oxopyrrolidin-3-yl]prop-2-enamide]
6.00 to 6.60	O=C(NCCc1c(-c2ccc(F)cc2)[nH]c2c(F)cc(F)cc12)C(O)C1CC1 (centres unmarked) [Compound 346]
6.00 to 6.60	Cn1ccnc1C(=O)NCCc1c(-c2ccc(F)cc2)[nH]c2c(F)cc(F)cc12 [Compound 388]
< 6.00	O=C(NCCc1c(-c2ccc(F)cc2)[nH]c2c(F)cc(F)cc12)c1cscn1 [Compound 385]
< 6.00	CN(C[C@H](O)CO)C(=O)OCCc1c(-c2ccc(F)cc2)[nH]c2c(F)cc(F)cc12 [Compound 482]
> 6.60	NC(=O)[C@@H](CO)NC(=O)OCCc1c(-c2ccc(F)cc2)[nH]c2c(F)cc(F)cc12 [Compound 447]
< 6.00	O=C(NCCc1c(-c2ccc(F)cc2)[nH]c2c(F)cc(F)cc12)c1cc[nH]n1 [Compound 351]
< 6.00	O=C(NCCc1c(-c2ccc(F)cc2)[nH]c2c(F)cc(F)cc12)c1ccc(O)nc1 [Compound 334]
6.00 to 6.60	C[C@@H]1NC(=O)[C@H]1NC(=O)CCc1c(-c2ccc(F)cc2)[nH]c2c(F)cc(F)cc12 [Compound 96]
< 6.00	O=C(NCCc1c(-c2ccc(F)cc2)[nH]c2c(F)cc(F)cc12)c1ccnc(C(F)(F)F)c1 [Compound 369]
< 6.00	CC(O)CS(=O)(=O)NCCc1c(-c2ccc(F)cc2)[nH]c2c(F)cc(F)cc12 (centres unmarked) [Compound 421]
> 6.60	O=C(CCc1c(-c2ccccc2)[nH]c2ccc(F)cc12)N[C@@H](CO)C(F)F [Compound 235, N-[(1S)-2,2-difluoro-1-(hydroxymethyl)ethyl]-3-(5-fluoro-2-phenyl-1H-indol-3-yl)propanamide]
< 6.00	O=C(CCc1c(-c2ccc(F)cc2)[nH]c2c(F)cc(F)cc12)N[C@H]1C[C@H](O)C1 [Compound 159]

— patent US20230014907A1, “INHIBITORS OF APOL1 AND METHODS OF USING SAME” (Vertex Pharmaceuticals Incorporated, priority 2020, published 2023)
